{"source": "patent US9913870B2", "about": "“Method for stimulating AMP-activated protein kinase” (DHARMA BIOMEDICAL, LLC, priority 2012, dated 2018)", "key": {"HepG2 cells": {"tested_on": "HepG2 cells", "test": "HDL and LDL/VLDL cholesterol quantification in HepG2 cells", "assay_type": "cell-based, human", "method": "HepG2 cells (2×106) were incubated with increasing concentrations of Glucodox (0-100 ug/ml) for 72 hours at 37° C. The cells, after washing with PBS, were lysed with methanol:choloroform […] solution. Both HDL an LDL fractions were separated and estimated using the HDL and LDL/VLDL quantification kit (MBL International Corporation, MA)."}, "3T3-L1 adipocytes": {"tested_on": "3T3-L1 adipocytes", "test": "Glucose uptake in differentiated adipocytes", "assay_type": "cell-based", "conditions": "72 hours", "method": "3T3-LI preadipocytes were used for glucose uptake and they were differentiated in the same manner as for adipocyte staining. The differentiated adipocytes (0.5×10^6) were treated with increasing concentrations (2-100 μg/ml) of guggul extracts for 72 hours in DMEM medium containing 1 μM insulin. 2,4-Thiazolidinedione (0.005 μM-0.1 μM) was used as a positive control for comparison. After 72 hours, the medium was replaced with starving medium (DMEM without FBS) for 2 hours at 37° C. and then with 3 ml KRH buffer (136 mM NaCl, 4.7 mM KCl, 1.25 mM CaCl2, 1.25 mM Mg SO4, 10 mM Hepes, pH 7.4) with 1 uM insulin at 37° C. for 30 min. For glucose uptake, 4.5 mg/ml glucose was added into the KRH buffer and plates were incubated for another 15 min. The plates were washed 4 times with KRH buffer, cells were lysed with RIPA buffer (0.5 ml/plate). The protein concentration of the extract was estimated and 500 ug extract was used for glucose estimation using the assay kit from Sigma Chemical Co., MO. The absorbance of the reaction mixture was measured at 340 nm and glucose concentration calculated."}, "human elastase": {"tested_on": "human elastase", "test": "PMN-elastase expression ELISA in CCL-110 fibroblasts", "assay_type": "cell-based", "conditions": "24 hours", "method": "CCL-110 skin fibroblast cells (10^6) were plated in EMEM containing 0.5% FBS and treated with increasing concentrations of GU-TC7 and CoQ10 for 24 hours in a CO2 incubator. The monolayer was lysed with 500 μL of RIPA buffer (50 mM Tris PH 7.4, 150 mM NaCl, 0.1% SDS, 0.5% Sodium deoxycholate, 1% Triton X-100 with one tablet for 25 mL of buffer) and protein concentration of the cellular extract was determined. Cellular extract (100 μg protein) was analyzed for the expression of human elastase using the PMN-Elastase ELISA kit form Alpco Immunoassays (Salem, N.H., U.S.A.)."}, "type I collagen": {"tested_on": "type I collagen", "test": "Collagen type I expression ELISA in CCL-110 fibroblasts", "assay_type": "cell-based, human", "conditions": "24 hours, increasing concentrations", "method": "CCL-110 human fibroblast cells (0.5×10^6) were treated with increasing concentrations of GU-TC7 and CoQ10 for 24 hours in 0.5% starving medium. On the next day, the medium was completely removed, washed with phosphate buffered saline once and lysed with 500 μL of 0.05 M acetic acid (pH 2.8-3.0) and 50 μL of pepsin solution by incubating at 4° C. for 48 hours. Later, […] of 10×TBS (1 M Tris, 2 M NaCl, 50 mM CaCl2) was added, and pH was adjusted to 8.0 with 1 N NaOH, and 50 μL of human pancreatic elastase was added followed by the incubation for another 48 hours at 4° C. The cells were scraped and transferred to eppendorf tubes and centrifuged for 10 min at 10 000 rpm. The supernatant was transferred to a new eppendorf tube, and protein concentration of the extract was determined. The type I collagen in the extract was analyzed using the human type 1 collagen ELISA kit from MD Bio-products (St. Paul, […]., U.S.A.)."}, "CCL-110 skin fibroblasts": {"tested_on": "CCL-110 skin fibroblasts", "test": "Cytotoxicity assay (MTT, Cell Proliferation I kit)", "assay_type": "cell-based, human", "conditions": "up to 100 μg mL−1, 24 hours", "method": "CCL-110 skin fibroblasts were cultured and plated at a density of 0.5×10^4 cells per well in 96-well tissue culture multiwell plates in EMEM medium. On the next day when cells were attached, they were treated with increasing concentrations (0-100 μg mL^−1) of GU-TC7 and CoQ10 (CoQ10 purchased from Sigma Chemical Co., St. Louis, Mo., U.S.A.) at 37° C. for 24 hours in a CO2 incubator maintained at 5% CO2 and 95% air. Cell proliferation assay was performed using the Cell Proliferation I kit (Roche Biochemicals, Indianapolis, Ind., U.S.A.) according to the manufacturer's protocol. The percentage survival of cells at each concentration was calculated based on the untreated control and plotted against drug concentrations (Cochrane, C. B. et al. “Anticancer effects of Annona glabra plant extracts in human leukemic cell lines” Anticancer Res., 2008, 28:965-971). Cytotoxicity assay was repeated three times with triplicate samples in each and mean values calculated."}, "MMP-1": {"tested_on": "MMP-1", "test": "MMP-1 expression ELISA in CCL-110 fibroblasts, with and without TNF-α", "assay_type": "cell-based, human", "design": "MMP-1 expression compared to untreated CCL-110 cells: dose or concentration left out as unconfirmed", "conditions": "for MMP-1 protein expression: CCL-110 fibroblasts, 24 hours, 0-100 μg mL−1, without TNF-α", "method": "CCL-110 skin fibroblast cells (10^5 mL^−1) were plated in 0.5% FBS containing EMEM for 24 hours for starvation and then treated with increasing concentrations of GU-TC7 and CoQ10 (0-100 μg mL^−1) for another 24 hours with and without the positive control ([…]). The medium was harvested and analyzed for MMP-1 (ng mL^−1) using the human MMP-1 ELISA kit from R&D Systems (Minneapolis, Minn., U.S.A.) according to the manufacturer's instructions. MMP-1 ELISA studies were repeated three times, with duplicate samples in each assay."}, "HSP70": {"tested_on": "HSP70", "test": "HSP70 expression ELISA in Menadione-stressed HepG2 cells", "assay_type": "cell-based, human", "conditions": "50 μM, 3 hours", "method": "A human liver cell line (HepG2) was used to study the expression of HSP70 in GU-MCT treated cells. The cells (2×10^6/4 ml) were grown in Eagles minimal essential medium and treated with 50 μM Menadione (Vitamin K analogue) for 3 hours in order to induce stress in the presence or absence of increasing concentrations of GU-MCT (0-100 μg/ml). The cells were harvested by scraping and cell lysate prepared by homogenizing cells in 0.5 ml of lysis buffer (R&D systems, Minneapolis, Minn.). Protein concentration of cell lysate was estimated and 10 μg protein was used for ELISA. The ELISA kit from R&D systems, MN was used to analyze the HSP70 protein expression (pg/ml) in the cell extract. The percentage of change in HSP70 expression was calculated based on the expression in untreated sample (100%)."}}, "note": "“Also recorded” adds a separate entry of the source."}
{"compound": "CC[C@H](C)C(=O)O[C@H]1CCC=C2C=C[C@H](C)[C@H](CC[C@@H]3C[C@@H](O)CC(=O)O3)[C@H]21", "note": "[Mevastatin]", "values": [{"measurement": "HDL in cellular extracts and cell culture medium", "setting": "HepG2 cells", "value": "not induced"}]}
{"compound": "O=C1CSC(=O)N1", "note": "[2,4 Thiazolidinedione, 2,4-Thiazolidinedione]", "values": [{"measurement": "glucose uptake (insulin sensitivity)", "setting": "3T3-L1 adipocytes", "value": "more potent than the guggul extracts"}]}
{"compound": "COC1=C(OC)C(=O)C(C/C=C(\\C)CC/C=C(\\C)CC/C=C(\\C)CC/C=C(\\C)CC/C=C(\\C)CC/C=C(\\C)CC/C=C(\\C)CC/C=C(\\C)CC/C=C(\\C)CCC=C(C)C)=C(C)C1=O", "note": "[CoQ10, coenzyme Q10]", "values": [{"measurement": "human elastase expression", "setting": "human elastase", "value": "no such inhibition was evident; also recorded: no inhibition of elastase at any evaluated concentration"}, {"measurement": "type I collagen synthesis", "setting": "type I collagen", "value": "inhibitory trend was noticed with increasing doses"}, {"measurement": "type I collagen synthesis", "setting": "type I collagen; listed as Coenzyme Q10", "value": "enhanced synthesis of type I collagen"}, {"measurement": "cytotoxic effects on CCL-110 skin fibroblasts", "setting": "CCL-110 skin fibroblasts", "value": "no cytotoxic effects"}, {"measurement": "cytotoxic effects on CCL-110 skin fibroblasts", "setting": "CCL-110 skin fibroblasts; listed as Coenzyme Q10", "value": "little cytotoxicity"}, {"measurement": "MMP-1 protein expression", "setting": "MMP-1", "value": "inhibits MMP-1 at 5 μg mL^−1, the inhibition rate remained almost constant with increasing concentrations"}, {"measurement": "MMP-1 protein expression", "setting": "MMP-1; listed as Coenzyme Q10", "value": "inhibition of MMP-1 expression"}]}
{"compound": "CC1=CC(=O)c2ccccc2C1=O", "note": "[Menadione]", "values": [{"measurement": "down regulation of HSP70 expression", "setting": "HSP70", "value": 40, "unit": "%"}]}
{"compound": "TNF-α", "values": [{"measurement": "MMP-1 expression compared to untreated CCL-110 cells", "setting": "MMP-1; TNF-α treatment", "value": "three times"}]}
